In test [1] the target is Protein kinase C (PKC). As to the kind of experiment: Inhibition of protein kinase C. Format: protein assay, Rattus norvegicus.
Test [2] relates to MR4. As to the kind of experiment: Concentration required for inhibiting the growth of MR4 cells; 0.05-0.1. Format: functional, Mus musculus.
Test [3] concerns HT-29. Put plainly: Concentration required for inhibiting the growth of HT-29 cells; 0.1-1.0. It counts as functional, Homo sapiens.
The subject of test [4] is MR4. Put plainly: Concentration required for inhibiting the growth of MR4 cells; 0.1-1.0. Format: functional, Mus musculus.
Test [5] deals with HT-29. Put plainly: Concentration required for inhibiting the growth of HT-29 cells; 0.05-0.1. It counts as functional, Homo sapiens.

The source of these data is ChEMBL document CHEMBL1151539, “The synthesis and evaluation of diacylglycerol analogues as potential second-messenger antagonists” (Bioorg Med Chem Lett, 1992).

Consider `CCCCCCCC(=O)OCC(COC(C)=O)OC(=O)CCCCCCC` (configuration not stated), for which the I50 in test [1] was 0.01 mM. The I80 in test [2] was 0.05 mM.
On to `CCCCCCCC(=O)OCC(COC)OC(=O)CCCCCCC` (configuration not stated), for which the I50 in test [1] is 0.1 mM. Besides, the I80 in test [3] and in test [4] was 0.1 mM each time.
`CCCCCCCC(=O)OCC(CO)OC(=O)CCCCCCC` (configuration not stated) [MONOCTANOIN COMPONENT C]: the I80 in test [2] and in test [5] was 0.05 mM throughout.
